Molecular target: Aurora A (Homo sapiens (Human), UniProt O14965)
Assay: Aurora A inhibition assay (Z-Lyte)
Type: biochemical

Sequence of Aurora A (O14965 whole entry): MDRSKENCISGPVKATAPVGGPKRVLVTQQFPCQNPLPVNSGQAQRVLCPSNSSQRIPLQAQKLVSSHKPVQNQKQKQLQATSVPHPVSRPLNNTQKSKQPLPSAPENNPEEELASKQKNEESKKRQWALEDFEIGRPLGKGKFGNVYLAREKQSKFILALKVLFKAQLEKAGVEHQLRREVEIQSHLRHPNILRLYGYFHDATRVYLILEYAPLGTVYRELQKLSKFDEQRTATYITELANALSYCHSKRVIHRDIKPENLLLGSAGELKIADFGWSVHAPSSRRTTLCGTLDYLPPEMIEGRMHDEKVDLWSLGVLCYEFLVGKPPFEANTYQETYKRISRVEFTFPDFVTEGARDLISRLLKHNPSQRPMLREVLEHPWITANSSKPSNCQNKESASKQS

| inhibition at 1 µM [%] | Structure (SMILES) |
| --- | --- |
| > 50 | CN(C)Cc1cccc(/C=C/c2n[nH]c3cc([C@@H]4C[C@@]45C(=O)Nc4ccccc45)ccc23)c1 (relative stereo) [Example A162, (1R*,2S*)-(E)-2-(3-(3-((dimethylamino)methyl)styryl)-1H-indazol-6-yl)spiro[cyclopropane-1,3′-indolin]-2′-one 2,2,2-trifluoroacetate] |
| > 50 | NC(=O)CN1C(=O)[C@@]2(C[C@H]2c2ccc3c(/C=C/c4ccc(CN5CCCCC5)cc4)n[nH]c3c2)c2ccccc21 (relative stereo) [Example A165, 2-((1R*,2S*)-(E)-2′-oxo-2-(3-(4-(piperidin-1-ylmethyl)styryl)-1H-indazol-6-yl)spiro[cyclopropane-1,3′-indoline]-1′-yl)acetamide 2,2,2-trifluoroacetate] |
| < 50 | COc1ccc2c(c1)[C@]1(C[C@H]1c1ccc3c(-c4ccc(CN(C)C)cc4)n[nH]c3c1)C(=O)N2 (relative stereo) [Example A166, (1R*,2S*)-2-(3-(4-((dimethylamino)methyl)phenyl)-1H-indazol-6-yl)-5′-methoxyspiro[cyclopropane-1,3′-indolin]-2′-one 2,2,2-trifluoroacetate] |
| < 50 | COc1cc2c(cc1OC)[C@]1(C[C@H]1c1ccc3c(/C=C/c4ccc(CN(C)C)cc4)n[nH]c3c1)C(=O)N2 (relative stereo) [Example A168, (1R*,2S*)-(E)-2-(3-(4-((dimethylamino)methyl)styryl)-1H-indazol-6-yl)-5′,6′-dimethoxyspiro[cyclopropane-1,3′-indolin]-2′-one 2,2,2-trifluoroacetate] |
| > 50 | Cc1ccc2c(c1)[C@]1(C[C@H]1c1ccc3c(/C=C/c4ccc(CN(C)C)cc4)n[nH]c3c1)C(=O)N2 (relative stereo) [Example A169, (1R*,2S*)-(E)-2-(3-(4-((dimethylamino)methyl)styryl)-1H-indazol-6-yl)-5′-methylspiro[cyclopropane-1,3′-indolin]-2′-one 2,2,2-trifluoroacetate] |
| < 50 | Cc1ccc2c(c1)[C@]1(C[C@H]1c1ccc3c(-c4ccc(N5CCN(C)CC5)cc4)n[nH]c3c1)C(=O)N2 (relative stereo) [Example A173, (1R*,2S*)-5′-methyl-2-(3-(4-(4-methylpiperazin-1-yl)phenyl)-1H-indazol-6-yl)spiro[cyclopropane-1,3′-indolin]-2′-one 2,2,2-trifluoroacetate] |
| > 50 | COc1ccc2c(c1)[C@]1(C[C@H]1c1ccc3c(/C=C/c4ccc(N5CCN(C)CC5)cc4)n[nH]c3c1)C(=O)N2 (relative stereo) [Example A174, (1R*,2S*)-(E)-5′-methoxy-2-(3-(4-(4-methylpiperazin-1-yl)styryl)-1H-indazol-6-yl)spiro[cyclopropane-1,3′-indolin]-2′-one 2,2,2-trifluoroacetate] |
| > 50 | CC(C)CCN1C(=O)[C@@]2(C[C@H]2c2ccc3c(/C=C/c4ccc(CN(C)C)cc4)n[nH]c3c2)c2ccccc21 (relative stereo) [Example A176, (1R*,2S*)-(E)-2-(3-(4-((dimethylamino)methyl)styryl)-1H-indazol-6-yl)-1′-isopentylspiro[cyclopropane-1,3′-indolin]-2′-one] |
| > 50 | COc1ccc2c(c1)[C@]1(C[C@H]1c1ccc3c(/C=C/c4csc(CN(C)C)c4)n[nH]c3c1)C(=O)N2 (relative stereo) [Example A181, (1R*,2S*)-2-(3-4E)-2-(5-((dimethylamino)methyl)thiophen-3-yl)vinyl)-1H-indazol-6-yl)-5′-methoxyspiro[cyclopropane-1,3′-indolin]-2′-one 2,2,2-trifluoroacetate] |

| Structure (SMILES) | inhibition at 1 µM [%] |
| --- | --- |
| CCc1ccc2c(c1)[C@]1(C[C@H]1c1ccc3c(/C=C/c4ccc(CN(C)C)cc4)n[nH]c3c1)C(=O)N2 (relative stereo) [Example A167, (1R*,2S*)-(E)-2-(3-(4-((dimethylamino)methyl)styryl)-1H-indazol-6-yl)-5′-ethylspiro[cyclopropane-1,3′-indolin]-2′-one 2,2,2-trifluoroacetate] | > 50 |

— patent publication US10358436B2, “Kinase inhibitors and method of treating cancer” (University Health Network, priority 2010, dated 2019)
